# From US12029751B2, “Therapeutic agent for nervous system disease” (OSAKA UNIVERSITY, priority 2017, dated 2024)
# What was measured:
# [1] = system: cerebral cortical neurons; experiment: LDH assay, necrosis inhibiting effect under oxygen-glucose deprivation (OGD) stress; format: cell-based, rat; conditions: 10 μM methylcobalamin 30 minutes before OGD stress (3 hours), measured after 24 hours
# From the text: Cerebral cortical neurons were collected and cultured by a conventional method. Cerebral cortex was dissected from a fetus of a Sprague-Dawley (SD) rat (18th day of pregnancy) and recovered in ice-cooled Dulbecco's Modified Eagle Medium (DMEM) containing 10% fetal bovine serum (FBS) and 1% penicillin/streptomycin. The pia mater and blood vessels were removed, and the remaining cerebral cortex was transferred to DMEM (containing 1% penicillin/streptomycin and no FBS) and cut into small pieces having a size of 1 mm by surgical scissors. Papain (final concentration, 2 mg/ml) was added to the cell mixture, and the mixture was allowed to react at 37° C. for 30 minutes. DNase I (70 U/ml) was added to the reaction mixture and reaction was carried out for 30 seconds. Then, DMEM containing 10% FBS and 1% penicillin/streptomycin was added to terminate the reaction. […]
# To the cerebral cortical neurons (Example 1-1) cultured on a PLL-coated 6-well chamber slide, 10 μM methylcobalamin was added at 30 minutes before exposure to oxygen-glucose deprivation (OGD) stress. […] After 24 hours, the supernatant was collected, and LDH activity was measured using Cytotoxicity Detection Kit^PLUS (SIGMA). LDH activities of the control group and the methylcobalamin addition group were calculated as proportions (%) with respect to the LDH activity of the high control.
# [2] = system: rat spinal cord injury model; experiment: Immunofluorescent staining of macrophages (M1, M2, M1/M2 ratio) in rat spinal cord injury model; format: in vivo; design: Number of macrophages: unit: /mm2
# Protocol: Six-week-old female Wistar rats were used. The rats were purchased from Charles River Laboratories Japan, Inc. (Yokohama, Japan). Anesthesia was performed as follows. A 1:10 dilution of a mixture of three anesthetic agents in physiological saline was administered by intraperitoneal injection. One dose consisted of 0.2 mg/kg of midazolam, 0.015 mg/kg of medetomidine, and 0.25 mg/kg of butorphanol. The rat was placed in a prone position on an operating table, and a dorsal midline incision was made. The T10 vertebral arch was removed to expose the posterior face of the spinal cord, and the left spinal cord was hemisected using a sharp-pointed surgical scalpel (spitz mess). The skin was sutured using a 4-0 nylon thread and the surgery was completed. A comparison was made among three groups: a methylcobalamin treatment group, an untreated group, and a sham group. Immediately after the surgical operation, an osmotic minipump filled with methylcobalamin (1 mg/kg/day) or physiological saline was placed for the methylcobalamin treatment group and the untreated group, respectively, and left in the left dorsal subcutaneous space. The sham group underwent only resection of the Th10 vertebral arch.
# The rat spinal cord injury model of Example 9-1 was used. At 7, 14, and 28 days after the surgery, the rats were anesthetized with an anesthetic agent, and perfusion fixation was performed with 4% PFA. Then, the spinal cord including the injury site was collected and fixed with 20% sucrose for 24 hours, and the fixed spinal cord was freeze-embedded. The embedded tissue was sliced into a 5-μm-thick slice in a nerve short-axis direction and placed on a glass slide. The slice was dried for 1 hour and fixed with 100% methanol for 30 minutes. The fixed slices were blocked, and cells were allowed to react with primary antibodies at 4° C. overnight. The cells were further allowed to react with a secondary antibody at room temperature for 1 hour so that the nuclei were labeled with DAPI.
# Using transverse spinal cord sections on the affected side at 2 and 1 mm on the head side and at 1 and 2 mm on the tail side from the injury site, the number of macrophages, the number of M1 (pro-inflammatory type) macrophages, the proportion of M1 macrophages, the number of M2 (anti-inflammatory type) macrophages, and the proportion of M2 macrophage per unit area, as well as the M1/M2 ratio were measured and calculated.
# The primary antibodies used were an anti-CD68 antibody, an anti-iNOS antibody, and an anti-Arg1 antibody. The secondary antibodies used were an Alexa 488-labeled goat anti-rabbit IgG antibody and an Alexa 568-labeled goat anti-mouse IgG antibody.
# [3] = 7, 14 and 28 days after the surgery, 1 mg/kg/day
# [4] = Table 16 (FIG. 16; day not given), 1 mm on the head side
# [5] = Table 16 (FIG. 16; day not given), 1 mm on the tail side
# [6] = Table 16 (FIG. 16; day not given), 2 mm on the head side
# [7] = Table 16 (FIG. 16; day not given), 2 mm on the tail side
# [8] = Table 17 (FIG. 17; day not given), 1 mm on the head side
# [9] = Table 17 (FIG. 17; day not given), 1 mm on the tail side
# [10] = Table 17 (FIG. 17; day not given), 2 mm on the head side
# [11] = Table 17 (FIG. 17; day not given), 2 mm on the tail side
# [12] = Table 18 (FIG. 18; day not given), 1 mm on the head side
# [13] = Table 18 (FIG. 18; day not given), 1 mm on the tail side
# [14] = Table 18 (FIG. 18; day not given), 2 mm on the head side
# [15] = Table 18 (FIG. 18; day not given), 2 mm on the tail side
smiles,measurement,setting,value
"C/C1=C2/[N-][C@H]([C@H](CC(N)=O)[C@@]2(C)CCC(=O)NC[C@@H](C)OP(=O)([O-])O[C@H]2[C@@H](O)[C@@H](n3cnc4cc(C)c(C)cc43)O[C@@H]2CO)[C@]2(C)N=C(/C(C)=C3N=C(/C=C4N=C1[C@@H](CCC(N)=O)C\4(C)C)[C@@H](CCC(N)=O)[C@]\3(C)CC(N)=O)[C@@H](CCC(N)=O)[C@]2(C)CC(N)=O.[CH3-].[Co+3] [MeCbl, methylcobalamin]",LDH activity as proportion with respect to the high control,[1],1.3%
same,LDH activity as proportion with respect to the high control,[1]; listed as methylcobalamin,significantly decreased
same,M1 macrophages as compared with the untreated group,[2]; [3],trends for decreased M1 macrophages
same,M2 macrophages as compared with the untreated group,[2]; [3],increased M2 macrophages
same,number of accumulated macrophages per unit area as compared with the untreated group,[2]; [3],trends for a smaller number
same,M1/M2,"[2]; 7 days after a surgery, 1 mm on the head side",0.5722
same,M1/M2,"[2]; 7 days after a surgery, 1 mm on the tail side",0.602
same,M1/M2,"[2]; 7 days after a surgery, 2 mm on the head side",0.8156
same,M1/M2,"[2]; 7 days after a surgery, 2 mm on the tail side",0.9337
same,M1/M2,"[2]; 14 days after a surgery, 1 mm on the head side",0.993
same,M1/M2,"[2]; 14 days after a surgery, 1 mm on the tail side",0.9409
same,M1/M2,"[2]; 14 days after a surgery, 2 mm on the head side",0.9106
same,M1/M2,"[2]; 14 days after a surgery, 2 mm on the tail side",0.8605
same,M1/M2,"[2]; 28 days after a surgery, 1 mm on the head side",2.457
same,M1/M2,"[2]; 28 days after a surgery, 1 mm on the tail side",4.3
same,M1/M2,"[2]; 28 days after a surgery, 2 mm on the head side",3.355
same,M1/M2,"[2]; 28 days after a surgery, 2 mm on the tail side",3.545
same,M1 macropage ratio,[2]; [4],0.131
same,Number of M1 macrophages/mm2,[2]; [4],37.00 /mm2
same,Number of M2 macrophages/mm2,[2]; [4],63.85 /mm2
same,Number of macrophages,[2]; [4],268.62
same,M1 macropage ratio,[2]; [5],0.129
same,Number of M1 macrophages/mm2,[2]; [5],43.07 /mm2
same,Number of M2 macrophages/mm2,[2]; [5],76.13 /mm2
same,Number of macrophages,[2]; [5],348.57
same,M1 macropage ratio,[2]; [6],0.143
same,Number of M1 macrophages/mm2,[2]; [6],20.43 /mm2
same,Number of M2 macrophages/mm2,[2]; [6],25.87 /mm2
same,Number of macrophages,[2]; [6],143.68
same,M1 macropage ratio,[2]; [7],0.170
same,Number of M1 macrophages/mm2,[2]; [7],27.02 /mm2
same,Number of M2 macrophages/mm2,[2]; [7],28.76 /mm2
same,Number of macrophages,[2]; [7],155.09
same,M1 macrophage ratio,[2]; [8],0.122
same,M2 macrophage ratio,[2]; [8],0.130
same,Number of M1 macropages/mm2,[2]; [8],48.35 /mm2
same,Number of M2 macrophages/mm2,[2]; [8],47.90 /mm2
same,Number of macrophages,[2]; [8],362.17
same,M1 macrophage ratio,[2]; [9],0.102
same,M2 macrophage ratio,[2]; [9],0.112
same,Number of M1 macropages/mm2,[2]; [9],43.74 /mm2
same,Number of M2 macrophages/mm2,[2]; [9],43.12 /mm2
same,Number of macrophages,[2]; [9],395.70
same,M1 macrophage ratio,[2]; [10],0.103
same,M2 macrophage ratio,[2]; [10],0.146
same,Number of M1 macropages/mm2,[2]; [10],28.35 /mm2
same,Number of M2 macrophages/mm2,[2]; [10],36.37 /mm2
same,Number of macrophages,[2]; [10],271.15
same,M1 macrophage ratio,[2]; [11],0.094
same,M2 macrophage ratio,[2]; [11],0.143
same,Number of M1 macropages/mm2,[2]; [11],25.54 /mm2
same,Number of M2 macrophages/mm2,[2]; [11],28.29 /mm2
same,Number of macrophages,[2]; [11],254.39
same,M1 macrophage ratio,[2]; [12],0.090
same,M2 macropahge ratio,[2]; [12],0.039
same,Number of M1 macrophages/mm2,[2]; [12],29.78 /mm2
same,Number of M2 macrophages/mm2,[2]; [12],12.86 /mm 2
same,Number of macrophages,[2]; [12],320.22
same,M1 macrophage ratio,[2]; [13],0.132
same,M2 macropahge ratio,[2]; [13],0.032
same,Number of M2 macrophages/mm2,[2]; [13],10.33 /mm 2
same,Number of macrophages,[2]; [13],342.11
same,Number of M1 macrophages/mm2,"[2]; Table 18 (FIG. 18; day not given), 1 mm on the tail side (last position column)",24.68 /mm2
same,Number of M1 macrophages/mm2,"[2]; Table 18 (FIG. 18; day not given), 1 mm on the tail side (third position column)",44.79 /mm2
same,M1 macrophage ratio,[2]; [14],0.089
same,M2 macropahge ratio,[2]; [14],0.032
same,Number of M1 macrophages/mm2,[2]; [14],20.16 /mm2
same,Number of M2 macrophages/mm2,[2]; [14],7.65 /mm 2
same,Number of macrophages,[2]; [14],230.75
same,M1 macrophage ratio,[2]; [15],0.095
same,M2 macropahge ratio,[2]; [15],0.032
same,Number of M2 macrophages/mm2,[2]; [15],7.42 /mm 2
same,Number of macrophages,[2]; [15],246.52
